Measured values reported in the supplement of paper PMC8612539.

Tested on: Escherichia coli
Assay: minimum inhibitory concentration (MIC)
Experimental: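 Broth microdilution MIC (Sensititre BOPO7F bovine plate, CLSI methods) of 19 antimicrobials against field isolates of P. multocida, M. haemolytica, H. somni (deep nasopharyngeal swabs) and E. coli, Enterococcus spp. (rectal swabs) from weaned dairy heifers. Incubation 16-24 h at 35 C. MIC is the lowest concentration preventing visible growth. Values with <= or > lie at the tested range limits. Trimethoprim-sulfamethoxazole is given as the trimethoprim component of a 1:19 mixture.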

COc1cc(Cc2cnc(N)nc2N)cc(OC)c1OC.Cc1cc(NS(=O)(=O)c2ccc(N)cc2)no1 [trimethoprim-sulfamethoxazole]
Conditions	minimum inhibitory concentration [µg/mL]
isolate (source animal id): 1	≤ 2
isolate (source animal id): 2	> 2
isolate (source animal id): 3	≤ 2
isolate (source animal id): 4	≤ 2
isolate (source animal id): 5	> 2
isolate (source animal id): 6	> 2
isolate (source animal id): 7	> 2
isolate (source animal id): 8	≤ 2
isolate (source animal id): 9	> 2
isolate (source animal id): 10	> 2
isolate (source animal id): 11	≤ 2
isolate (source animal id): 12	> 2
isolate (source animal id): 13	≤ 2
isolate (source animal id): 14	> 2
isolate (source animal id): 15	≤ 2
isolate (source animal id): 16	≤ 2
isolate (source animal id): 17	> 2
isolate (source animal id): 18	≤ 2
isolate (source animal id): 19	≤ 2
isolate (source animal id): 20	> 2
isolate (source animal id): 21	≤ 2
isolate (source animal id): 22	≤ 2
isolate (source animal id): 23	≤ 2
isolate (source animal id): 24	≤ 2
isolate (source animal id): 25	> 2
isolate (source animal id): 26	≤ 2
isolate (source animal id): 27	> 2
isolate (source animal id): 28	≤ 2
isolate (source animal id): 29	> 2
isolate (source animal id): 30	> 2
isolate (source animal id): 31	> 2
isolate (source animal id): 32	> 2
isolate (source animal id): 33	> 2
isolate (source animal id): 34	≤ 2
isolate (source animal id): 35	> 2
isolate (source animal id): 36	> 2
isolate (source animal id): 37	> 2
isolate (source animal id): 38	> 2
isolate (source animal id): 39	> 2
isolate (source animal id): 40	≤ 2
isolate (source animal id): 41	> 2
isolate (source animal id): 42	> 2
isolate (source animal id): 43	> 2
isolate (source animal id): 44	≤ 2
isolate (source animal id): 45	> 2
isolate (source animal id): 46	≤ 2
isolate (source animal id): 47	> 2
isolate (source animal id): 48	> 2
isolate (source animal id): 49	> 2
isolate (source animal id): 50	> 2
isolate (source animal id): 51	> 2
isolate (source animal id): 52	≤ 2
isolate (source animal id): 53	> 2
isolate (source animal id): 54	≤ 2
isolate (source animal id): 55	≤ 2
isolate (source animal id): 56	≤ 2
isolate (source animal id): 57	> 2
isolate (source animal id): 58	≤ 2
isolate (source animal id): 59	≤ 2
isolate (source animal id): 60	≤ 2
isolate (source animal id): 61	> 2
isolate (source animal id): 62	≤ 2
isolate (source animal id): 63	≤ 2
isolate (source animal id): 64	≤ 2
isolate (source animal id): 65	> 2
isolate (source animal id): 66	≤ 2
isolate (source animal id): 67	≤ 2
isolate (source animal id): 68	≤ 2
isolate (source animal id): 69	≤ 2
isolate (source animal id): 70	≤ 2
isolate (source animal id): 71	≤ 2
isolate (source animal id): 72	≤ 2
isolate (source animal id): 73	≤ 2
isolate (source animal id): 74	≤ 2
isolate (source animal id): 75	≤ 2
isolate (source animal id): 76	> 2
isolate (source animal id): 77	≤ 2
isolate (source animal id): 78	> 2
isolate (source animal id): 79	≤ 2
isolate (source animal id): 80	≤ 2
isolate (source animal id): 81	> 2
isolate (source animal id): 82	≤ 2
isolate (source animal id): 83	≤ 2
isolate (source animal id): 84	≤ 2
isolate (source animal id): 85	≤ 2
isolate (source animal id): 86	> 2
isolate (source animal id): 87	≤ 2
isolate (source animal id): 88	≤ 2
isolate (source animal id): 89	≤ 2
isolate (source animal id): 90	≤ 2
isolate (source animal id): 91	≤ 2
isolate (source animal id): 92	≤ 2
isolate (source animal id): 93	≤ 2
isolate (source animal id): 94	> 2
isolate (source animal id): 95	≤ 2
isolate (source animal id): 96	≤ 2
isolate (source animal id): 97	> 2
isolate (source animal id): 98	≤ 2
isolate (source animal id): 99	≤ 2
isolate (source animal id): 100	≤ 2
isolate (source animal id): 101	> 2
isolate (source animal id): 102	≤ 2
isolate (source animal id): 103	≤ 2
isolate (source animal id): 104	≤ 2
isolate (source animal id): 105	≤ 2
isolate (source animal id): 106	> 2
isolate (source animal id): 107	≤ 2
isolate (source animal id): 108	≤ 2
isolate (source animal id): 109	≤ 2
isolate (source animal id): 110	≤ 2
isolate (source animal id): 111	≤ 2
isolate (source animal id): 112	≤ 2
isolate (source animal id): 113	≤ 2
isolate (source animal id): 114	≤ 2
isolate (source animal id): 115	> 2
isolate (source animal id): 116	≤ 2
isolate (source animal id): 117	≤ 2
isolate (source animal id): 118	≤ 2
isolate (source animal id): 119	> 2
isolate (source animal id): 120	> 2
isolate (source animal id): 121	> 2
isolate (source animal id): 122	> 2
isolate (source animal id): 123	≤ 2
isolate (source animal id): 124	> 2
isolate (source animal id): 125	≤ 2
isolate (source animal id): 126	> 2
isolate (source animal id): 127	> 2
isolate (source animal id): 128	≤ 2
isolate (source animal id): 129	≤ 2
isolate (source animal id): 130	> 2
isolate (source animal id): 131	≤ 2
isolate (source animal id): 132	≤ 2
isolate (source animal id): 133	≤ 2
isolate (source animal id): 134	≤ 2
isolate (source animal id): 135	≤ 2
isolate (source animal id): 136	≤ 2
isolate (source animal id): 137	≤ 2
isolate (source animal id): 138	> 2
isolate (source animal id): 139	> 2
isolate (source animal id): 140	≤ 2
isolate (source animal id): 141	> 2
isolate (source animal id): 142	≤ 2
isolate (source animal id): 143	> 2
isolate (source animal id): 144	≤ 2
isolate (source animal id): 145	> 2
isolate (source animal id): 146	≤ 2
isolate (source animal id): 147	> 2
isolate (source animal id): 148	≤ 2
isolate (source animal id): 149	≤ 2
isolate (source animal id): 150	> 2
isolate (source animal id): 151	≤ 2
isolate (source animal id): 152	≤ 2
isolate (source animal id): 153	≤ 2
isolate (source animal id): 154	≤ 2
isolate (source animal id): 155	≤ 2
isolate (source animal id): 156	> 2
isolate (source animal id): 157	≤ 2
isolate (source animal id): 158	≤ 2
isolate (source animal id): 159	≤ 2
isolate (source animal id): 160	> 2
isolate (source animal id): 161	> 2
isolate (source animal id): 162	≤ 2
isolate (source animal id): 163	≤ 2
isolate (source animal id): 164	≤ 2
isolate (source animal id): 165	≤ 2
isolate (source animal id): 166	≤ 2
isolate (source animal id): 167	≤ 2
isolate (source animal id): 168	≤ 2
isolate (source animal id): 169	≤ 2
isolate (source animal id): 170	≤ 2
isolate (source animal id): 171	≤ 2
isolate (source animal id): 172	≤ 2
isolate (source animal id): 173	≤ 2
isolate (source animal id): 174	≤ 2
isolate (source animal id): 175	≤ 2
isolate (source animal id): 176	≤ 2
isolate (source animal id): 177	≤ 2
isolate (source animal id): 178	≤ 2
isolate (source animal id): 179	≤ 2
isolate (source animal id): 180	≤ 2
isolate (source animal id): 181	≤ 2
isolate (source animal id): 182	≤ 2
isolate (source animal id): 183	≤ 2
isolate (source animal id): 184	≤ 2
isolate (source animal id): 185	≤ 2
isolate (source animal id): 186	≤ 2
isolate (source animal id): 187	≤ 2
isolate (source animal id): 188	> 2
isolate (source animal id): 189	≤ 2
isolate (source animal id): 190	> 2
isolate (source animal id): 191	≤ 2
isolate (source animal id): 192	≤ 2
isolate (source animal id): 193	≤ 2
isolate (source animal id): 194	≤ 2
isolate (source animal id): 195	≤ 2
isolate (source animal id): 196	≤ 2
isolate (source animal id): 197	≤ 2
isolate (source animal id): 198	> 2
isolate (source animal id): 199	≤ 2
isolate (source animal id): 200	≤ 2
isolate (source animal id): 201	≤ 2
isolate (source animal id): 202	≤ 2
isolate (source animal id): 203	≤ 2
isolate (source animal id): 204	≤ 2
isolate (source animal id): 205	≤ 2
isolate (source animal id): 206	≤ 2
isolate (source animal id): 207	≤ 2
isolate (source animal id): 208	≤ 2
isolate (source animal id): 209	≤ 2
isolate (source animal id): 210	≤ 2
isolate (source animal id): 211	≤ 2
isolate (source animal id): 212	≤ 2
isolate (source animal id): 213	≤ 2
isolate (source animal id): 214	≤ 2
isolate (source animal id): 215	≤ 2
isolate (source animal id): 216	> 2
isolate (source animal id): 217	≤ 2
isolate (source animal id): 218	≤ 2
isolate (source animal id): 219	≤ 2
isolate (source animal id): 220	≤ 2
isolate (source animal id): 221	≤ 2
isolate (source animal id): 222	≤ 2
isolate (source animal id): 223	≤ 2
isolate (source animal id): 224	≤ 2
isolate (source animal id): 225	≤ 2
isolate (source animal id): 226	> 2
isolate (source animal id): 227	≤ 2
isolate (source animal id): 228	≤ 2
isolate (source animal id): 229	> 2
isolate (source animal id): 230	≤ 2
isolate (source animal id): 231	≤ 2
isolate (source animal id): 232	≤ 2
isolate (source animal id): 233	≤ 2
isolate (source animal id): 234	≤ 2
isolate (source animal id): 235	≤ 2
isolate (source animal id): 236	≤ 2
isolate (source animal id): 237	≤ 2
isolate (source animal id): 238	≤ 2
isolate (source animal id): 239	≤ 2
isolate (source animal id): 240	≤ 2
isolate (source animal id): 241	≤ 2
isolate (source animal id): 242	≤ 2
isolate (source animal id): 243	≤ 2
isolate (source animal id): 244	≤ 2
isolate (source animal id): 245	≤ 2
isolate (source animal id): 246	≤ 2
isolate (source animal id): 247	≤ 2
isolate (source animal id): 248	≤ 2
isolate (source animal id): 249	≤ 2
isolate (source animal id): 250	≤ 2
isolate (source animal id): 251	≤ 2
isolate (source animal id): 252	≤ 2
isolate (source animal id): 253	≤ 2
isolate (source animal id): 254	≤ 2
isolate (source animal id): 255	≤ 2
isolate (source animal id): 256	≤ 2
isolate (source animal id): 257	≤ 2
isolate (source animal id): 258	≤ 2
isolate (source animal id): 259	> 2
isolate (source animal id): 260	≤ 2
isolate (source animal id): 261	≤ 2
isolate (source animal id): 262	≤ 2
isolate (source animal id): 263	≤ 2
isolate (source animal id): 264	≤ 2
isolate (source animal id): 265	≤ 2
isolate (source animal id): 266	≤ 2
isolate (source animal id): 267	≤ 2
isolate (source animal id): 268	≤ 2
isolate (source animal id): 269	≤ 2
isolate (source animal id): 270	≤ 2
isolate (source animal id): 271	≤ 2
isolate (source animal id): 272	≤ 2
isolate (source animal id): 273	≤ 2
isolate (source animal id): 274	> 2
isolate (source animal id): 275	> 2
isolate (source animal id): 276	≤ 2
isolate (source animal id): 277	≤ 2
isolate (source animal id): 278	≤ 2
isolate (source animal id): 279	≤ 2
isolate (source animal id): 280	≤ 2
isolate (source animal id): 281	≤ 2
isolate (source animal id): 282	≤ 2
isolate (source animal id): 283	≤ 2
isolate (source animal id): 284	≤ 2
isolate (source animal id): 285	≤ 2
isolate (source animal id): 286	> 2
isolate (source animal id): 287	> 2
isolate (source animal id): 288	≤ 2
isolate (source animal id): 289	≤ 2
isolate (source animal id): 290	≤ 2
isolate (source animal id): 291	> 2
isolate (source animal id): 292	> 2
isolate (source animal id): 293	≤ 2
isolate (source animal id): 294	≤ 2
isolate (source animal id): 295	> 2
isolate (source animal id): 296	≤ 2
isolate (source animal id): 297	≤ 2
isolate (source animal id): 298	> 2
isolate (source animal id): 299	≤ 2
isolate (source animal id): 300	≤ 2
isolate (source animal id): 301	≤ 2
isolate (source animal id): 302	≤ 2
isolate (source animal id): 303	≤ 2
isolate (source animal id): 304	> 2
isolate (source animal id): 305	≤ 2
isolate (source animal id): 306	≤ 2
isolate (source animal id): 307	≤ 2
isolate (source animal id): 308	≤ 2
isolate (source animal id): 309	≤ 2
isolate (source animal id): 310	≤ 2
isolate (source animal id): 311	> 2
isolate (source animal id): 312	≤ 2
isolate (source animal id): 313	≤ 2
isolate (source animal id): 314	≤ 2
isolate (source animal id): 315	≤ 2
isolate (source animal id): 316	> 2
isolate (source animal id): 317	> 2
isolate (source animal id): 318	≤ 2
isolate (source animal id): 319	≤ 2
isolate (source animal id): 320	≤ 2
isolate (source animal id): 321	> 2
isolate (source animal id): 322	≤ 2
isolate (source animal id): 323	> 2
isolate (source animal id): 324	≤ 2
isolate (source animal id): 325	> 2
isolate (source animal id): 326	≤ 2
isolate (source animal id): 327	≤ 2
isolate (source animal id): 328	≤ 2
isolate (source animal id): 329	≤ 2
isolate (source animal id): 330	≤ 2
isolate (source animal id): 331	≤ 2
isolate (source animal id): 332	≤ 2
isolate (source animal id): 333	≤ 2
isolate (source animal id): 334	> 2
isolate (source animal id): 335	≤ 2
isolate (source animal id): 336	≤ 2
isolate (source animal id): 337	≤ 2
isolate (source animal id): 338	> 2
isolate (source animal id): 339	≤ 2
isolate (source animal id): 340	≤ 2
isolate (source animal id): 341	≤ 2
